Measurements taken from ChEMBL document CHEMBL1201862, “PubChem BioAssay data set” (2004).
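The compound was tested at five concentrations on cells cultured in 96-well plates, with a 48-hour exposure period. The concentration for 50% growth inhibition is given as GI50.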 Calls of active or inactive are those of the source. No stated cut-off is given here; in the data, active = GI50 up to about 1.1 µM and inactive = higher.

Tests used:
Assay in all cases: DTP human tumour cell line panel, 48 h
[1] = system: A498
[2] = system: CAKI-1
[3] = system: LOX IMVI
[4] = system: Malme-3M
[5] = system: NCI-H23
[6] = system: NCI-H522
[7] = system: OVCAR-4
[8] = system: OVCAR-5
[9] = system: SF-268
[10] = system: SF-539
[11] = system: SK-MEL-5
[12] = system: SK-OV-3
[13] = system: SNB-75
[14] = system: T47D
[15] = system: A549
[16] = system: CCRF-CEM
[17] = system: HL-60
[18] = system: SK-MEL-2
[19] = system: UO-31
[20] = system: MDA-N

N#Cc1c2c(c(Nc3cccc(C(F)(F)F)c3)n3c1nc1ccccc13)CCC2
GI50 [1]: > 100 µM (inactive)
GI50 [2]: > 100 µM (inactive)
GI50 [3]: > 100 µM (inactive)
GI50 [4]: > 100 µM (inactive)
GI50 [5]: > 100 µM (inactive)
GI50 [6]: > 100 µM (inactive)
GI50 [7]: > 100 µM (inactive)
GI50 [8]: > 100 µM (inactive)
GI50 [9]: > 100 µM (inactive)
GI50 [10]: > 100 µM (inactive)
GI50 [11]: > 100 µM (inactive)
GI50 [12]: > 100 µM (inactive)
GI50 [13]: > 100 µM (inactive)
GI50 [14]: > 100 µM (inactive)

O=C(c1ccccc1)C(c1ccccc1)C1(O)C(=O)Nc2c(Cl)ccc(Cl)c21 (stereo not given)
GI50 [1]: 25.3 µM (inactive)
GI50 [15]: 26.1 µM (inactive)
GI50 [2]: 20.5 µM (inactive)
GI50 [16]: 12.2 µM (inactive)
GI50 [17]: 15.6 µM (inactive)
GI50 [3]: 11.8 µM (inactive)
GI50 [4]: 17.4 µM (inactive)
GI50 [5]: 16.3 µM (inactive)
GI50 [6]: 18.5 µM (inactive)
GI50 [7]: 3.73 µM (inactive)
GI50 [8]: 20.4 µM (inactive)
GI50 [9]: 21.9 µM (inactive)
GI50 [10]: 20.3 µM (inactive)
GI50 [18]: 21.2 µM (inactive)
GI50 [11]: 18.2 µM (inactive)
GI50 [12]: 30.8 µM (inactive)
GI50 [13]: 16.8 µM (inactive)
GI50 [19]: 20.2 µM (inactive)

O=C(Cc1ccccc1)NNc1nc(NNC(=O)c2ccncc2)nc(Nc2ccccc2)n1
GI50 [2]: > 10 µM (inactive)
GI50 [16]: > 10 µM (inactive)
GI50 [17]: > 10 µM (inactive)
GI50 [3]: > 10 µM (inactive)
GI50 [20]: > 10 µM (inactive)
GI50 [4]: > 10 µM (inactive)
GI50 [7]: > 10 µM (inactive)
GI50 [9]: > 10 µM (inactive)
GI50 [10]: > 10 µM (inactive)
GI50 [12]: > 10 µM (inactive)
GI50 [13]: > 10 µM (inactive)
GI50 [14]: > 10 µM (inactive)
GI50 [19]: 1.12 µM (active)

COc1cc(OCc2nc3cc(C(F)(F)F)ccc3nc2-c2ccccc2)cc(OC)c1OC
GI50 [1]: > 100 µM (inactive)
GI50 [15]: 36.9 µM (inactive)
GI50 [2]: > 100 µM (inactive)
GI50 [16]: > 100 µM (inactive)
GI50 [17]: > 100 µM (inactive)
GI50 [3]: > 100 µM (inactive)
GI50 [4]: > 100 µM (inactive)
GI50 [5]: 87.3 µM (inactive)
GI50 [7]: 95.3 µM (inactive)
GI50 [8]: > 100 µM (inactive)
GI50 [9]: > 100 µM (inactive)
GI50 [10]: 45.8 µM (inactive)
GI50 [18]: > 100 µM (inactive)
GI50 [11]: 17.1 µM (inactive)
GI50 [12]: > 100 µM (inactive)
GI50 [13]: 98.9 µM (inactive)
GI50 [14]: 11.9 µM (inactive)
GI50 [19]: > 100 µM (inactive)

Cn1nc2n(c1=O)CCCN2
GI50 [1]: > 100 µM (inactive)
GI50 [15]: > 100 µM (inactive)
GI50 [16]: > 100 µM (inactive)
GI50 [17]: > 100 µM (inactive)
GI50 [3]: > 100 µM (inactive)
GI50 [20]: > 100 µM (inactive)
GI50 [4]: > 100 µM (inactive)
GI50 [5]: > 100 µM (inactive)
GI50 [6]: > 100 µM (inactive)
GI50 [7]: > 100 µM (inactive)
GI50 [8]: > 100 µM (inactive)
GI50 [9]: > 100 µM (inactive)
GI50 [10]: > 100 µM (inactive)
GI50 [11]: > 100 µM (inactive)
GI50 [13]: > 100 µM (inactive)

CC(C)(C)OC(=O)NC(CO)c1cccc(OCc2ccccc2)c1 (stereo not given)
GI50 [1]: > 87.9 µM (inactive)
GI50 [15]: 42.8 µM (inactive)
GI50 [2]: > 100 µM (inactive)
GI50 [16]: 31.7 µM (inactive)
GI50 [17]: 13.9 µM (inactive)
GI50 [3]: 49 µM (inactive)
GI50 [4]: 63 µM (inactive)
GI50 [5]: > 65.5 µM (inactive)
GI50 [6]: 46 µM (inactive)
GI50 [7]: 99.8 µM (inactive)
GI50 [8]: > 100 µM (inactive)
GI50 [9]: > 100 µM (inactive)
GI50 [10]: > 100 µM (inactive)
GI50 [18]: > 100 µM (inactive)
GI50 [11]: 28.2 µM (inactive)
GI50 [12]: > 100 µM (inactive)
GI50 [13]: > 100 µM (inactive)
GI50 [19]: > 100 µM (inactive)

COC1=CC(=O)C2C(C1=O)C(c1ccc(Cl)cc1)[C@@H]2C (stereo not given in full)
GI50 [1]: 58.9 µM (inactive)
GI50 [15]: 34 µM (inactive)
GI50 [2]: 37.8 µM (inactive)
GI50 [16]: 29.4 µM (inactive)
GI50 [17]: 22.2 µM (inactive)
GI50 [3]: 22.4 µM (inactive)
GI50 [4]: 23 µM (inactive)
GI50 [5]: 28.6 µM (inactive)
GI50 [6]: 15.2 µM (inactive)
GI50 [7]: 42.4 µM (inactive)
GI50 [8]: 30.3 µM (inactive)
GI50 [9]: 33 µM (inactive)
GI50 [10]: 22.8 µM (inactive)
GI50 [18]: 37.4 µM (inactive)
GI50 [11]: 19.5 µM (inactive)
GI50 [12]: > 100 µM (inactive)
GI50 [13]: 17.4 µM (inactive)
GI50 [19]: 19.7 µM (inactive)

Nc1ccc(-c2nc3ccccc3s2)cc1F
GI50 [1]: 0.0775 µM (active)
GI50 [15]: 21.3 µM (inactive)
GI50 [2]: 19.5 µM (inactive)
GI50 [16]: 5.47 µM (inactive)
GI50 [3]: 44.7 µM (inactive)
GI50 [20]: 37.2 µM (inactive)
GI50 [4]: 42 µM (inactive)
GI50 [5]: 52.1 µM (inactive)
GI50 [6]: 20.9 µM (inactive)
GI50 [7]: 18.7 µM (inactive)
GI50 [9]: 34 µM (inactive)
GI50 [18]: 19.2 µM (inactive)
GI50 [11]: 20 µM (inactive)
GI50 [12]: 38.5 µM (inactive)
GI50 [13]: 21.5 µM (inactive)
GI50 [19]: 14.2 µM (inactive)
